41 molecules from ChEMBL document CHEMBL3988442, “University of Dundee, Small-Polar-MMV Screening Library” (2021) can be followed below.

For test [1], the target named is T1, Coenzyme A biosynthesis bifunctional protein CoaBC (Mycobacterium tuberculosis (strain ATCC 25618 / H37Rv), UniProt P9WNZ1).
T1 sequence (P9WNZ1 whole entry): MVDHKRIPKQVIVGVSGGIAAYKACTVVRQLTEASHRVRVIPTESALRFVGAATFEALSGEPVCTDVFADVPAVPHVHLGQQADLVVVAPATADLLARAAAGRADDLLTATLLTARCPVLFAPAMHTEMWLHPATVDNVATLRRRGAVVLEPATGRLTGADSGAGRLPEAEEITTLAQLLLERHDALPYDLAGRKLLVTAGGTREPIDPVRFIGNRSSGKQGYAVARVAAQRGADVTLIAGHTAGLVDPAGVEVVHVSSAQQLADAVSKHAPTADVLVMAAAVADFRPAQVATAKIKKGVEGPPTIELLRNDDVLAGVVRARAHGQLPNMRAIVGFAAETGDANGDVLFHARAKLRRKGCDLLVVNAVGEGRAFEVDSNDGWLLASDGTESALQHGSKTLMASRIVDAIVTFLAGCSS
Briefly: Biomol Green assay for MtCoaBC inhibitor, OD650 read. The test is classed as functional.

The next test addresses ClpP1P2 (Mycobacterium tuberculosis (strain ATCC 25618 / H37Rv), UniProt P9WPC3+P9WPC5). Briefly: in vitro assay to detect presence of AMC directly proportional to the activity of ClpP1P2. GHDDI collaboration. The test is classed as functional.
A further test has as its system Plasmodium falciparum. Briefly: Calibr Malaria Delayed Death Assay SOP. The test is classed as functional, organism-based. The following applies: for IC50: Plasmodium falciparum.
Test [2] in a line: microbe, parasite or virus in culture. Conditions: Mycobacterium tuberculosis, 96 h, read-out: pIC50 (converted).
Test [3] in a line: microbe, parasite or virus in culture. Conditions: Mycobacterium tuberculosis, 72 h, read-out: pIC50 (converted).
In another test the target is Tryptophan--tRNA ligase (Mycobacterium tuberculosis (strain ATCC 25618 / H37Rv), UniProt P9WFT3). Nature of the test: Biochemical assay for Mt-TrpRS. Format: functional.
Test [4] is described as follows: In vitro enzyme assay to detect hydrolysis of chlorophenol red-beta-D-[…] directly proportional to the number of Toxoplasma stably expressing beta-galactosidase. Format: functional, organism-based, Toxoplasma gondii. The following applies: for IC50: Toxoplasma gondii.

Values joined by “and” are separate entries in the source; they are usually repeats but may differ in a detail not shown here. Equal values may be shown once.

A word on the pIC50: it is −log10 of the IC50, conventionally taken in molar units. A low value points to a high IC50.

Sequence of ClpP1P2 (P9WPC5 whole entry): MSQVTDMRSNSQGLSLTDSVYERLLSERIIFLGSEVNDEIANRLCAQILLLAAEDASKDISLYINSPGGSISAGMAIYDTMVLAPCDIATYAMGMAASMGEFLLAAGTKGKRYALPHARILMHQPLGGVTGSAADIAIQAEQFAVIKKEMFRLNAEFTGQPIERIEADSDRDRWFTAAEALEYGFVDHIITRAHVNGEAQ
Sequence of ClpP1P2 (P9WPC3 whole entry): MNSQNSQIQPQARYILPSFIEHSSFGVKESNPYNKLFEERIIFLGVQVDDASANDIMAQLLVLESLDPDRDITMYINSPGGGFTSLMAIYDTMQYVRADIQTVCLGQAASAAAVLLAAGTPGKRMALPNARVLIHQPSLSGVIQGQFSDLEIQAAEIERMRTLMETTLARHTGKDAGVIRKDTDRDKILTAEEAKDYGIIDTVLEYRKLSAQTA
Sequence of Tryptophan--tRNA ligase (P9WFT3 whole entry): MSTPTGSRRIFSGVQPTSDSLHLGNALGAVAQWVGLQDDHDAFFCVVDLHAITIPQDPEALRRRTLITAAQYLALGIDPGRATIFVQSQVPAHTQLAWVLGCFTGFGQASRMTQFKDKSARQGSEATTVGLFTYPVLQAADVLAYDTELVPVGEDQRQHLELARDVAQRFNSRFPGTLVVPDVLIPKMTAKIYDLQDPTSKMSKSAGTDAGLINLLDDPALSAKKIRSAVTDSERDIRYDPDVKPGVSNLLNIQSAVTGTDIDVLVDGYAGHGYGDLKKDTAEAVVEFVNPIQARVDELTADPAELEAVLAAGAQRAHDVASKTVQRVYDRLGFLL

On to `Cc1ccc(-c2cc(-c3nc(CN4CCN(C)CC4)no3)[nH]n2)s1`, for which the IC50 in test [1] was greater than 30.2 µM; on ClpP1P2, greater than 100 µM. `Cn1cc(CNC2CCCOc3c2ccc2ccccc32)cn1` (stereo unspecified): in the test on Plasmodium falciparum, the pIC50 stood at 6.02 and the IC50 is 0.871 µM. For the same molecule, in test [1], the IC50 is greater than 30.2 µM. In the same order, the values of `COc1ccc(C(O)CN2CC(n3nc(C)cc3C)C2)cc1` (stereo unspecified) are 5.759, 1.76 µM and greater than 30.2 µM. Regarding `CC(C)Cc1nc(CO)n(-c2ccc3c(c2)OCCO3)n1`, the figures for the IC50 (in test [1]; on ClpP1P2) were greater than 30.2 µM and greater than 100 µM, respectively. For the molecule `CC(C)(C)CN1CCN2C(=O)N(C3CCCCC3)C[C@H]2C1`, the IC50 in test [2] was greater than 50.1 µM; in test [1] it was greater than 30.2 µM; in test [3] it was greater than 50.1 µM.

`Cc1c[nH]nc1C1CCN(C(=O)C2CCOCC2)C1` (stereo unspecified): the IC50 was greater than 30.2 µM in test [1] and greater than 195 µM against Tryptophan--tRNA ligase. In the test with Plasmodium falciparum, `CCN(CC)CCNS(=O)(=O)c1cccc(CSC)c1` gave a pIC50 of 6.161 and an IC50 of 0.551 µM. The molecule also had an IC50 in test [1] greater than 30.2 µM. Consider `Cc1nn(C)c(C)c1CN(C)C(=O)c1cc(NC(=O)C2CC2)n(C)n1`, for which the IC50 in test [4] was greater than 50.1 µM; in test [1], greater than 30.2 µM. With `Cc1cc(CCC2CN(CC3(O)CCCCC3)CCO2)ncn1` (stereo unspecified), the IC50 in test [1] is greater than 30.2 µM; at Tryptophan--tRNA ligase it was greater than 195 µM.

For the molecule `CCn1c(NCc2ccccn2)nc2c(C)nn(C)c2c1=O`, the pIC50 in test [4] was < 4.3 and 4.672. The IC50 in test [1] is greater than 30.2 µM.

For `Cc1nccn1-c1cccc(C2CCCN2)n1` (stereo unspecified), the IC50 was greater than 30.2 µM in test [1] and greater than 100 µM at ClpP1P2. As for `c1ccc(Cn2cc(CNCC3CNc4ccnn4C3)cn2)cc1` (stereo unspecified), the IC50 is greater than 30.2 µM in test [1] and greater than 195 µM against Tryptophan--tRNA ligase. Consider `Cc1ccc(C(=O)Nc2c(C(=O)N(C)C)nn(C)c2C)cc1C`, for which the IC50 in test [4] was greater than 50.1 µM; in test [1], greater than 30.2 µM. Turning to `CN1CCOC[C@H]1c1nc(-c2ccc(F)cc2F)c[nH]1`, the IC50 in test [1] is greater than 30.2 µM. Same read-out and setting: in the case of `O=c1c2ccccc2nc2n1CCC2O` (stereo unspecified) it was greater than 30.2 µM; in that of `Nc1nccnc1CC1CCCN(Cc2c[nH]c3ccccc23)C1` (stereo unspecified), greater than 30.2 µM; in that of `c1ccc(Cc2noc(CCNC3CCOC4(CCOCC4)C3)n2)cc1` (stereo unspecified), greater than 30.2 µM.

`O=C(NCCc1ccccn1)c1n[nH]c2c1CCC2` had an IC50 in test [1] greater than 30.2 µM. For `COc1c(Cl)cc(Cl)cc1CN1CCC(C(N)=O)C1` (stereo unspecified), the IC50 in test [2] was greater than 50.1 µM; in test [1], greater than 30.2 µM; in test [3], greater than 50.1 µM. In test [1], `CC(=O)N1CCC(N2CCN3C(=O)N(Cc4ccccn4)C[C@H]3C2)CC1` had an IC50 greater than 30.2 µM. In turn, `CN(C)Cc1cccc(-c2cccnc2C(=O)NCc2cn(C)cn2)c1` gave an IC50 in test [1] greater than 30.2 µM. `Cc1ccc(CN2C[C@@H]3CCN(Cc4ccncc4)C(=O)[C@H]3C2)s1`: the figures for the IC50 (in test [1]; at ClpP1P2) were greater than 30.2 µM and 34.3 µM, respectively.

`O=c1cc(C2CCNCC2)nc(CCc2ccccn2)[nH]1` gave an IC50 in test [1] greater than 30.2 µM. In test [1], `Cc1cc(C)nc(N2CCC(C(=O)Nc3ncc[nH]3)CC2)n1` showed an IC50 greater than 30.2 µM. On the same count and under the same terms, the result for `Cc1cnc(N2CCn3cc(CNC(=O)CC4CC4)nc3C2)nc1` reads greater than 30.2 µM. Turning to `O=S(=O)(c1cccc(F)c1)N1C[C@@H]2COC[C@]2(COCC2CC2)C1`, the IC50 in test [1] was greater than 30.2 µM.

In test [1], `Cc1nn2cccnc2c1C(=O)N1CCCC(n2ccnc2C)C1` (stereo unspecified) showed an IC50 greater than 30.2 µM.

On to `CCc1nc(NS(=O)(=O)c2cccc(F)c2C)no1`, for which the IC50 in test [1] was greater than 30.2 µM. Take `O=C(NCCNc1ncccn1)C1CCCC1`: in test [1], the IC50 was greater than 30.2 µM. Still for that read-out and setting: in the case of `CC(C)c1noc(C[S+]([O-])CC(=O)Nc2ccc(F)c(F)c2)n1` (stereo unspecified) it was greater than 30.2 µM; in that of `CCCn1cc(CN2CCOCC2c2[nH]ncc2C)cn1` (stereo unspecified), greater than 30.2 µM. For `CN(C)C(=O)CN1CCCC2(CCN(c3ccsc3)C2=O)C1` (stereo unspecified), the IC50 in test [1] is greater than 30.2 µM. In test [1], `Cc1cc(NC(=O)C2CCN(c3ncccc3C#N)CC2)no1` gave an IC50 greater than 50.1 µM. Same read-out and setting: in the case of `COCCN1CCN(Cc2cnc(C3(C)CCCCO3)nc2)CC1` (stereo unspecified) it was greater than 50.1 µM; in that of `COc1ccc(CN[C@@H]2CO[C@H](CNC(=O)N3CCOCC3)[C@H]2O)cc1`, greater than 30.2 µM; in that of `CCNC(=O)NC(=O)CNC(C)(C)c1ccc2c(c1)OCCO2`, greater than 30.2 µM. On the same count and under the same terms, the result for `COc1cccc([C@@]2(O)CC[C@@H]3CN(C(=O)c4ccn(C)n4)C[C@@H]32)c1` reads greater than 30.2 µM; that for `Cc1cc(C)n(C2CN(CC(=O)N(C)Cc3cnn(C)c3)C2)n1`, greater than 30.2 µM. Regarding `Cc1cc(C)n(-c2cccc(C(=O)Nc3n[nH]c(C4CCCO4)n3)c2)n1` (stereo unspecified), in test [1], the IC50 is greater than 30.2 µM. `CCN(CCO)C[C@@H]1CN(C(=O)c2ccc(C)s2)C[C@@H]1CO` showed an IC50 in test [1] greater than 30.2 µM.

In test [1], `CC(C)N1CCC(C(=O)N2CCc3c(nc(CC4CC4)[nH]c3=O)C2)CC1` had an IC50 greater than 30.2 µM.
